These are literature values, as cited in patent US20030166007A1, “Chemical proteomics” (MDS Proteomics Inc., priority 2002, published 2003).

Structures are written as SMILES.

Data set [1] addresses T1, muscle glycogen phosphorylase b (Homo sapiens, UniProt P11217).
T1 sequence (P11217 1-842): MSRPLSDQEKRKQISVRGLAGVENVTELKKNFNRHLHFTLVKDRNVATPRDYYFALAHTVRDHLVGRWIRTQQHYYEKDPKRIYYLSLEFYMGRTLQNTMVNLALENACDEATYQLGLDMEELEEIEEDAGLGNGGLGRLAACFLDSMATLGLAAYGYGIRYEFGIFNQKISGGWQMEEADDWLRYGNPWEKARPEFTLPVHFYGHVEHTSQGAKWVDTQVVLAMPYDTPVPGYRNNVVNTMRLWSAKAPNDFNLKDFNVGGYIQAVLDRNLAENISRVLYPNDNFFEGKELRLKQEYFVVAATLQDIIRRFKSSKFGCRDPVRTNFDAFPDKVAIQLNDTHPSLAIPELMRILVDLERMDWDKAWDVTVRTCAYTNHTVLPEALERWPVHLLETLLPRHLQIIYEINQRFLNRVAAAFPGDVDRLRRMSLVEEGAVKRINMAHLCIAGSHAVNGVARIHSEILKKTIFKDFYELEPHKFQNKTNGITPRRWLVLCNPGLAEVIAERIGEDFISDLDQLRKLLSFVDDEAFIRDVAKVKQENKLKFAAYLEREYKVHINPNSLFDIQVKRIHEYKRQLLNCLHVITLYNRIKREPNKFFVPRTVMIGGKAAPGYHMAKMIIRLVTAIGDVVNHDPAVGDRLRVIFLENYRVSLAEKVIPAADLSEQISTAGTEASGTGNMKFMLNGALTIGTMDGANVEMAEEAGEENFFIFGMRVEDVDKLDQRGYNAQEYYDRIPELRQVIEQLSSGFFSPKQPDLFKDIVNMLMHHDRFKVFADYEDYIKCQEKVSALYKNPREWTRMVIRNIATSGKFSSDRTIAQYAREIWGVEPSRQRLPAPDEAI
As to conditions: cited from earlier work.

Data set [2] addresses Amido phosphoribosyltransferase (Homo sapiens, UniProt Q06203). As to conditions: in vitro assays; cited from earlier work.

Amido phosphoribosyltransferase, sequence (Q06203 12-517, species assumed): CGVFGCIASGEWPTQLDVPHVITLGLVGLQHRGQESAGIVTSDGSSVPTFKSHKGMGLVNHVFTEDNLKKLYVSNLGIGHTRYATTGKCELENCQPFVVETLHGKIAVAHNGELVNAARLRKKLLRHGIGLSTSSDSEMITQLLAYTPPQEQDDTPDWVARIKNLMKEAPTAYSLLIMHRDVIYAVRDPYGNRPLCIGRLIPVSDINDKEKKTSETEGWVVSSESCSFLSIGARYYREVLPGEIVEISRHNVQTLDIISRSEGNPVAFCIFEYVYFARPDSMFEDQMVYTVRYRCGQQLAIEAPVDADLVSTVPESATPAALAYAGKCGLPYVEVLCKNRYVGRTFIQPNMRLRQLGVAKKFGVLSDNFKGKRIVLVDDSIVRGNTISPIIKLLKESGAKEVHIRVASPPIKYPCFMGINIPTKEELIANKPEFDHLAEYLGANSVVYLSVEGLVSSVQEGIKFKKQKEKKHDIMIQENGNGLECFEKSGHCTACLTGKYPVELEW

`CN(Cc1cnc2nc(N)nc(N)c2n1)c1ccc(C(=O)NC(CCC(=O)O)C(=O)O)cc1Cl` (stereo not drawn) [3′-chloroMethotrexate]: in data set [1], the “inhibition of muscle glycogen phosphorylase b” value is given as “reversible inhibitors”. For the molecule `CN(Cc1cnc2nc(N)nc(N)c2n1)c1c(Cl)cc(C(=O)N[C@@H](CCC(=O)O)C(=O)O)cc1Cl` [3′,5′-dichloroMethotrexate], the “inhibition of muscle glycogen phosphorylase b” value in data set [1] is given as “reversible inhibitors”. For the molecule `CN(Cc1cnc2nc(N)nc(N)c2n1)c1ccc(C(=O)N[C@@H](CCC(=O)N[C@@H](CCC(=O)N[C@@H](CCC(=O)N[C@@H](CCC(=O)N[C@@H](CCC(=O)O)C(=O)O)C(=O)O)C(=O)O)C(=O)O)C(=O)O)cc1` [MTX-Glu5], the inhibition of amido-phosphoribosyltransferase result in data set [2] was “inhibited”.
